Like-named read-outs stand apart in the source and are kept apart here.
Assays:
[1] = Artificial membrane permeability assay (PAMPA)
HER2 = HER2 degradation assay with BT-474 cell line (Example 12, FACS); type: cell-based, human
[2] = Retention of docetaxel SDC-TRAPs in plasma and tumor (Example 53); type: in vivo, Female SCID Mouse (H1975); conditions: DRD
Protocol: Blood samples (˜300 μL) were collected by cardiac puncture and immediately centrifuged at 6000 rpm for 8 minutes at approximately 4° C. Resulting plasma samples (˜150 μL) were stored at −80° C. until analysis.
Following sacrifice, tumors were immediately dissected on ice, flash frozen in liquid N2, and stored at −80° C. until analysis.
To 55 μL of plasma samples, 200 μL of methanol containing 150-250 ng/mL internal standard(s) was added. Samples were vortex mixed for approximately 1.5 minutes at ambient temperature and then centrifuged at 4400 rpm for 10 mm at approximately 4° C. The resulting supernatants (175 μL) were transferred to a 96-well plate and dried under nitrogen at 40° C. Dried samples were reconstituted with 100 μL 50/50 (v/v) water/methanol, vortex mixed and 10 μL were injected into LC-MS/MS.
Tumor samples were weighed and homogenized in 5 volume of ice-cold phosphate buffered saline on ice using a hand-held homogenizer. To 55 μL of tumor homogenate samples, 200 μL of methanol containing 150-250 ng/mL internal standard(s) was added. Samples were vortex mixed for approximately 1.5 minutes at ambient temperature and then centrifuged at 4400 rpm for 10 min at approximately 4° C. The resulting supernatants (175 μL) were transferred to a 96-well plate and dried under nitrogen at 40° C. Dried samples were reconstituted with 100 μL 50/50 (v/v) water/methanol, vortex mixed and 10 μL were injected into LC-MS/MS.
Plasma and tumor samples were analyzed by LC-MS/MS using an Agilent 1100 HPLC (Agilent Technologies, Santa Clara, Calif.) interfaced to an API 4000 tandem mass spectrometer (Applied Biosystems, Foster City, Calif.). […] The flow rate was 0.5 mL/min. […] Quantitation for each analyte was done by extrapolation from a standard curve ranging from 2.50 to 50000 nM with 1/x^2 weighting.
Blood samples (˜300 μL) were collected by cardiac puncture and immediately centrifuged at 6000 rpm for 8 minutes at approximately 4° C. Resulting plasma samples (˜150 μL) were transferred to Eppendorf tubes containing approximately 5-10 mg of NaF, vortex mixed, and stored at −80° C. until analysis.
Following sacrifice tumors were immediately dissected on ice, flash frozen in liquid N2, and stored at −80° C. until analysis.
To 60 μL of plasma samples, 25 μL of 75/25 (v/v) water/acetonitrile containing 100 ng/mL internal standard(s) and 200 μL of acetonitrile were added. Samples were vortex mixed for approximately 2 minutes at ambient temperature and then centrifuged at 4400 rpm for 10 min at approximately 4° C. The resulting supernatants (300 μL) were transferred to a 96-well plate and dried under nitrogen at 40° C. Dried samples were reconstituted with 500 μL 60/40 (v/v) water/acetonitrile, vortex mixed and 10 μL were injected into LC-MS/MS.
Tumor samples were weighed and homogenized in 3 volume of ice-cold phosphate buffered saline on ice using a hand-held homogenizer. To 60 μL of tumor homogenate samples, 25 μL of 75/25 (v/v) water/acetonitrile containing 100 ng/mL internal standard(s) and 200 μL of acetonitrile were added. […] The resulting supernatants (200 μL) were transferred to a 96-well plate and dried under nitrogen at 40° C. Dried samples were reconstituted with 600 μL 60/40 (v/v) water/acetonitrile, vortex mixed and 10 μL were injected into LC-MS/MS.
Plasma and tumor samples were analyzed by LC-MS/MS using an Agilent 1100 HPLC (Agilent Technologies, Santa Clara, Calif.) interfaced to an API 4000 tandem mass spectrometer (Applied Biosystems, Foster City, Calif.). The separation of analytes were performed on a Symmetry Shield Sum C18 (2.1×100 mm; 100 Å) column (Waters, Milford, Mass.) with a run time of 5.0 mm per sample using the mobile phase consisted of 0.1% formic acid (A) and acetonitrile containing 0.1% formic acid (B). […] Quantitation for each analyte was done by extrapolation from a standard curve ranging from 1.00 to 25000 ng/mL with 1/x^2 weighting.

[3] = Tissue Distribution Data for SDC-TRAP-0154
[4] = of analyte at 24 h, dosed SDC-TRAP-0427 25 mg/10 mL/kg IV, Table 4
[5] = of analyte at 48 h, dosed SDC-TRAP-0427 25 mg/10 mL/kg IV, Table 4
[6] = of analyte at 72 h, dosed SDC-TRAP-0427 25 mg/10 mL/kg IV, Table 4
[7] = of analyte at 48 h, dosed SDC-TRAP-0423 7 mg/10 mL/kg IV, Table 5, second optimized procedure
[8] = of analyte at 72 h, dosed SDC-TRAP-0423 7 mg/10 mL/kg IV, Table 5, second optimized procedure
[9] = of analyte at 48 h, dosed SDC-TRAP-0428 25 mg/10 mL/kg IV, Table 4

With `CC(C)c1cc(-c2nnc(C(=O)NCCCCCS(N)(=O)=O)n2-c2ccc(CN3CCOCC3)cc2)c(O)cc1O` [SDC-TRAP-0232, 5-(2,4-dihydroxy-5-isopropylphenyl)-4-(4-(morpholinomethyl)phenyl)-N-(5-sulfamoylpentyl)-4H-1,2,4-triazole-3-carboxamide] the “Mass Retention” value ([1]; incubation 5 h, first table) was 21.0%.

For `CC(C)c1cc(-c2nnc(O)n2-c2ccc3c(ccn3CCOCCNC(=O)CCn3cc(F)c(=O)[nH]c3=O)c2)c(O)cc1O` [SDC-TRAP-0048, N-(2-(2-(5-(3-(2,4-dihydroxy-5-isopropylphenyl)-5-hydroxy-4H-1,2,4-triazol-4-yl)-1H-indol-1-yl)ethoxy)ethyl)-3-(5-fluoro-2,4-dioxo-3,4-dihydropyrimidin-1(2H)-yl)propanamide], the “Mass Retention” value ([1]; incubation 5 h, first table) was 10.8%.

In the case of `CCc1c2c(nc3ccc(OC(=O)N4CCC[C@H]4C(=O)N4CCC(CCn5ccc6cc(-n7c(O)nnc7-c7cc(C(C)C)c(O)cc7O)ccc65)CC4)cc13)-c1cc3c(c(=O)n1C2)COC(=O)[C@]3(O)CC` [SDC-TRAP-0210], the IC50 (HER2) is reported as greater than 10000 nM, the “Mass Retention” value ([1]; incubation 5 h, first table) is reported as 34.8% and the “Mass Retention” value ([1]; same protocol, second table) is reported as 72.2%.

In the case of `CCNC(=O)c1nnc(-c2cc(C(C)C)c(O)cc2O)n1-c1ccc(CN2CCC(C(=O)N[C@@H](CC(C)C)C(=O)Nc3cccc4c3CN(C3CCC(=O)NC3=O)C4=O)CC2)cc1` (stereo partly drawn) [SDC-TRAP-0193, 1-(4-(3-(2,4-dihydroxy-5-isopropylphenyl)-5-(ethylcarbamoyl)-4H-1,2,4-triazol-4-yl)benzyl)-N-((2S)-1-((2-(2,6-dioxopiperidin-3-yl)-1-oxoisoindolin-4-yl)amino)-4-methyl-1-oxopentan-2-yl)piperidine-4-carboxamide], the “Mass Retention” value ([1]; incubation 5 h, first table) is reported as 10.2%.

In the case of `CC(C)c1cc(-c2nnc(O)n2-c2ccc3c(ccn3CCNC(=O)CCCCCNC(=O)CCCC[C@H]3SCC4NC(=O)NC43)c2)c(O)cc1O` (stereo in doubt) [SDC-TRAP-0234, N-(2-(5-(3-(2,4-dihydroxy-5-isopropylphenyl)-5-hydroxy-4H-1,2,4-triazol-4-yl)-1H-indol-1-yl)ethyl)-6-(5-((3aR,4R,6aS)-2-oxohexahydro-1H-thieno[3,4-d]imidazol-4-yl)pentanamido)hexanamide], the “Mass Retention” value ([1]; incubation 5 h, first table) is reported as 9.56%.

In the case of `COc1cccc2c1C(=O)c1c(O)c3c(c(O)c1C2=O)C[C@@](O)(C(=O)CO)C[C@@H]3O[C@H]1C[C@H](N)[C@H](O)[C@H](C)O1` [Doxorubicin, doxorubicin, reference compound], the “Mass Retention” value ([1]; incubation 5 h, first table) is reported as 21.0%.

For `CC(=O)O[C@@]12CO[C@@H]1C[C@H](O)[C@@]1(C)C(=O)[C@H](O)C3=C(C)[C@@H](OC(=O)[C@H](OC(=O)CCC(=O)NC4CCN(C(=O)C5CCN(Cc6ccc(-n7c(O)nnc7-c7cc(C(C)C)c(O)cc7O)cc6)CC5)CC4)[C@@H](NC(=O)OC(C)(C)C)c4ccccc4)C[C@@](O)([C@@H](OC(=O)c4ccccc4)[C@H]21)C3(C)C` [SDC-TRAP-0427], the concentration at 6 h ([2]; female, SCID, mouse, in vivo, of analyte at 6 h, dosed SDC-TRAP-0427 7 mg/10 mL/kg IV, Table 5, second optimized procedure, read-out: Plasma Conc.) was 8390 nM, the concentration at 6 h ([2]; female, SCID, mouse, in vivo, of analyte at 6 h, dosed SDC-TRAP-0427 25 mg/10 mL/kg IV, Table 4, read-out: Plasma Conc.) was 20900 nM and the concentration at 48 h ([2]; female, SCID, mouse, in vivo, of analyte at 48 h, dosed SDC-TRAP-0427 7 mg/10 mL/kg IV, Table 5, second optimized procedure, read-out: Plasma Conc.) was 11.8 nM. For the same molecule, the concentration at 72 h ([2]; female, SCID, mouse, in vivo, of analyte at 72 h, dosed SDC-TRAP-0427 7 mg/10 mL/kg IV, Table 5, second optimized procedure, read-out: Plasma Conc.) was 10.1 nM, the “Tumor Conc.” value ([2]; of analyte at 6 h, dosed SDC-TRAP-0427 7 mg/10 mL/kg IV, Table 5, second optimized procedure) was 1.19 nmol/g of tissue and the “Tumor Conc.” value ([2]; of analyte at 6 h, dosed SDC-TRAP-0427 25 mg/10 mL/kg IV, Table 4) was 13.6 nmol/g of tissue. For the same molecule, the “Plasma Conc.” value [2, 4] was “BQL”, the “Tumor Conc.” value [2, 4] was 14.6 nmol/g of tissue and the “Tumor Conc.” value ([2]; of analyte at 48 h, dosed SDC-TRAP-0427 7 mg/10 mL/kg IV, Table 5, second optimized procedure) was 0.458 nmol/g of tissue. For the same molecule, the “Plasma Conc.” value [2, 5] was “BQL”, the “Tumor Conc.” value [2, 5] was 8.02 nmol/g of tissue and the “Tumor Conc.” value ([2]; of analyte at 72 h, dosed SDC-TRAP-0427 7 mg/10 mL/kg IV, Table 5, second optimized procedure) was 0.372 nmol/g of tissue. For the same molecule, the “Plasma Conc.” value [2, 6] was “BQL” and the “Tumor Conc.” value [2, 6] was 7.18 nmol/g of tissue.

In the case of `Cn1c(=O)c2c(ncn2C)n(C)c1=O` [Caffeine], the “Mass Retention” value ([1]; incubation 5 h, first table) is reported as 20.8% and the “Mass Retention” value ([1]; same protocol, second table) is reported as −0.11%.

For `CCNC(=O)c1nnc(-c2cc(C(C)C)c(O)cc2O)n1-c1ccc(Oc2ccc(C(=O)N3CCC(C(=O)OC4(CC)C(=O)OCc5c4cc4n(c5=O)Cc5c-4nc4ccc(O)cc4c5CC)CC3)cc2)cc1` (stereo not shown) [SDC-TRAP-0154, 4,11-Diethyl-9-hydroxy-3,14-dioxo-3,4,12,14-tetrahydro-1H-pyrano[3′,4′:6,7]indolizino[1,2-b]quinolin-4-yl 1-(4-(4-(3-(2,4-dihydroxy-5-isopropylphenyl)-5-(ethylcarbamoyl)-4H-1,2,4-triazol-4-yl)phenoxy)benzoyl)piperidine-4-carboxylate], the IC50 (HER2) was 191 nM, the “Plasma Conc.” value ([3]; Time (h) 0.083) was 928000 nM and the “Tumor Conc.” value ([3]; Time (h) 0.083) was 11.8 nmol/g of tissue. For the same molecule, the “Tumor/Plasma Ratio” value ([3]; Time (h) 0.083) was 0.01, the “Plasma Conc.” value ([3]; Time (h) 1) was 251000 nM and the “Tumor Conc.” value ([3]; Time (h) 1) was 14.1 nmol/g of tissue. For the same molecule, the “Tumor/Plasma Ratio” value ([3]; Time (h) 1) was 0.06, the “Plasma Conc.” value ([3]; Time (h) 6) was 5080 nM and the “Tumor Conc.” value ([3]; Time (h) 6) was 9.46 nmol/g of tissue. For the same molecule, the “Tumor/Plasma Ratio” value ([3]; Time (h) 6) was 1.86, the “Plasma Conc.” value ([3]; Time (h) 24) was 198 nM and the “Tumor Conc.” value ([3]; Time (h) 24) was 2.35 nmol/g of tissue. For the same molecule, the “Tumor/Plasma Ratio” value ([3]; Time (h) 24) was 11.9, the “Plasma Conc.” value ([3]; Time (h) 48) was 21.8 nM and the “Tumor Conc.” value ([3]; Time (h) 48) was 1.88 nmol/g of tissue. The “Tumor/Plasma Ratio” value ([3]; Time (h) 48) was 86.0 and the “Mass Retention” value ([1]; same protocol, second table) was 10.3%.

For `CCNC(=O)c1nnc(-c2cc(C(C)C)c(O)cc2O)n1-c1ccc(N(C)C2CCN(C(=O)CCC(=O)O[C@H](C(=O)O[C@@H]3C[C@]4(O)[C@H](OC(=O)c5ccccc5)[C@H]5C6(OC(C)=O)COC6C[C@@H](O)[C@]5(C)C(=O)[C@@H](O)C(=C3C)C4(C)C)[C@H](NC(=O)OC(C)(C)C)c3ccccc3)CC2)nc1` (stereo partly shown) [SDC-TRAP-0423], the concentration at 6 h ([2]; female, SCID, mouse, in vivo, of analyte at 6 h, dosed SDC-TRAP-0423 7 mg/10 mL/kg IV, Table 5, second optimized procedure, read-out: Plasma Conc.) was 2210 nM, the “Tumor Conc.” value ([2]; of analyte at 6 h, dosed SDC-TRAP-0423 7 mg/10 mL/kg IV, Table 5, second optimized procedure) was 0.730 nmol/g of tissue and the “Plasma Conc.” value [2, 7] was “BQL”. For the same molecule, the “Tumor Conc.” value [2, 7] was 0.0538 nmol/g of tissue, the “Plasma Conc.” value [2, 8] was “BQL” and the “Tumor Conc.” value [2, 8] was 0.0186 nmol/g of tissue.

With `CC(C)c1cc(-c2nnc(O)n2-c2ccc3c(ccn3CCNC(=O)CCCC[C@@H]3SCC4NC(=O)NC43)c2)c(O)cc1O` (stereo in doubt) [SDC-TRAP-0233, N-(2-(5-(3-(2,4-dihydroxy-5-isopropylphenyl)-5-hydroxy-4H-1,2,4-triazol-4-yl)-1H-indol-1-yl)ethyl)-5-((3aS,4S,6aR)-2-oxohexahydro-1H-thieno[3,4-d]imidazol-4-yl)pentanamide] the “Mass Retention” value ([1]; incubation 5 h, first table) was 10.9%.

For `CC(C)c1cc(-c2nnc(O)n2-c2ccc(CN3CCN(C(=O)CCn4cc(F)c(=O)[nH]c4=O)CC3)cc2)c(O)cc1O` [SDC-TRAP-0049, 1-(3-(4-(4-(3-(2,4-dihydroxy-5-isopropylphenyl)-5-hydroxy-4H-1,2,4-triazol-4-yl)benzyl)piperazin-1-yl)-3-oxopropyl)-5-fluoropyrimidine-2,4(1H,3H)-dione], the “Mass Retention” value ([1]; incubation 5 h, first table) was 14.1%.

For `CC(=O)O[C@@]12CO[C@@H]1C[C@H](O)[C@@]1(C)C(=O)[C@H](O)C3=C(C)[C@@H](OC(=O)[C@H](O)[C@@H](NC(=O)OC(C)(C)C)c4ccccc4)C[C@@](O)([C@@H](OC(=O)c4ccccc4)[C@H]21)C3(C)C` [Docetaxel, docetaxel, reference compound], the “Mass Retention” value ([1]; incubation 5 h, first table) was 17.6%.

With `CC(=O)O[C@@]12CO[C@@H]1C[C@H](O)[C@@]1(C)C(=O)[C@H](O)C3=C(C)[C@@H](OC(=O)[C@H](OC(=O)C4CCN(C(=O)C5CCN(Cc6ccc(-n7c(O)nnc7-c7cc(C(C)C)c(O)cc7O)cc6)CC5)CC4)[C@@H](NC(=O)OC(C)(C)C)c4ccccc4)C[C@@](O)([C@@H](OC(=O)c4ccccc4)[C@H]21)C3(C)C` [SDC-TRAP-0428] the “Tumor Conc.” value ([2]; of analyte at 6 h, dosed SDC-TRAP-0428 25 mg/10 mL/kg IV, Table 4) was 5.27 nmol/g of tissue, the “Tumor Conc.” value ([2]; of analyte at 24 h, dosed SDC-TRAP-0428 25 mg/10 mL/kg IV, Table 4) was 3.89 nmol/g of tissue and the “Plasma Conc.” value [2, 9] was “BQL”. The “Tumor Conc.” value [2, 9] was 3.40 nmol/g of tissue and the “Tumor Conc.” value ([2]; of analyte at 72 h, dosed SDC-TRAP-0428 25 mg/10 mL/kg IV, Table 4) was 1.20 nmol/g of tissue.

— patent US10828315B2 (Madrigal Pharmaceuticals, Inc., priority 2013, dated 2020)
